In US20040232089A1, “Biocidal compounds for treating water” (VANETTA S.p.A., priority 2003, published 2004):

Tests used:
[1] = test system: Balanus amphitrite nauplii; assay: Barnacle efficacy test; format: in vivo
Procedure: This efficacy tests was carried out by using Balanus amphitrite nauplii (Crustacea: Cirripedia). Specimens of this organism are collected in nature, and then maintained and reared in our laboratories, following a standard methodology. Adult organisms regularly produce larvae at the second naupliar stage, characterized by the typical triangular carapace, with a shield shape. […] Stage II nauplii have been used; immediately after their emission from adults larvae were divided and put in a beaker with […] filtered natural sea-water.

[2] = test system: Pseudomonas elongata NCIMB 1141; assay: Disk diffusion test (Kirby-Bauer); format: cell-based; details: 100 μg MNB disk, 24 hours in the dark
Procedure: (§1) a) Kirby-Bauer assay was carried out after 24 hours in the dark.
(§2) In the disk diffusion susceptibility test, paper disks containing known amounts of MNB are placed on the surface of an agar plate that has been inoculated confluently with a standardized suspension of an indicator bacterial strain. The antimicrobial agent diffuses into the medium causing a zone of inhibition of growth of the strain around the disk corresponding to the susceptibility of the strain to that agent. Interpretative zone diameters have been established to permit classifying an isolate as belonging to the susceptible, intermediate resistance, or resistant categories of susceptibilities to an antimicrobial agent.
(§3) The disk diffusion method on agar plates was used to assess the biocide efficacy of a single concentration of MNB ([…]) against four aerobic quality control strains (Pseudomonas aeruginosa ATCC10145, Pseudomonas elongata NCIMB 1141, Bacillus subtilis ATCC 10774 and Staphylococcus aureus ATCC 25923).
(§4) Test results are summarised in Table 5 and represent the size of the inhibition halos in millimetres after contact with 100 μg MNB (Disk diffusion method).

[3] = test system: Pseudomonas aeruginosa ATCC 10145; assay: Disk diffusion test (Kirby-Bauer); format: cell-based; details: 100 μg MNB disk, 24 hours in the dark
Procedure: as §1, §2, §3, §4

[4] = test system: Bacillus subtilis ATCC 10774; assay: Disk diffusion test (Kirby-Bauer); format: cell-based; details: 100 μg MNB disk, 24 hours in the dark
Procedure: as §1, §2, §3, §4

[5] = test system: Staphylococcus aureus ATCC 25923; assay: Disk diffusion test (Kirby-Bauer); format: cell-based; details: 100 μg MNB disk, 24 hours in the dark
Procedure: as §1, §2, §3, §4

[6] = test system: Aeromonas sp. CH34; assay: Microdilution broth MIC/MBC; format: cell-based; details: 24 h at 25° C., dark
Procedure: (§5) b) Serial dilution test: the antibiotic activity is determined quantitatively by using the known sensitivity of a test strain towards an antibiotic which is expressed numerically as the minimal inhibitory concentration (MIC) and the minimal bactericidal concentration (MBC).
(§6) Procedure: serial dilutions of the antibiotic to be tested are pipetted into the antibiotic broth, this is then inoculated with a defined quantity of the relevant test strain (FIG. 4).
(§7) The Minimum Inhibitory Concentration (MIC) was defined as the lowest concentration of antibiotic which prevented visual turbidity after incubation.
(§8) The Minimum Bactericidal Concentration (MBC) is defined as the lowest concentration of an antibiotic killing the majority of a bacterial inoculum (99.9%, equivalent to a thousand-fold reduction of the inoculum). Method: Following a broth dilution MIC test, from each tube in the dilution series a defined volume (20 μL) is spread onto plates without antibiotics. To minimize the carry-over effect of antibiotic from the test tubes, let the drop “dry” before the inoculum is spread over the surface (a section of the agar plate). The plates were incubate overnight (longer for slow growing bacteria) and then counted the number of colonies growing from each of the test tubes. The number of colonies corresponding to a thousand-fold reduction (MBC) can be calculated if the colony count of the start inoculum is known.
(§9) The microdilution broth method was used to evaluate the MIC and the MBC against 15 aerobic bacteria isolated from culture collection and seawater. Antimicrobial dilutions were performed using Mueller Hinton Broth supplemented with divalent cations. The tested product was dissolved in the medium to obtain a final range concentration between 0,12 to 64 mg/l.
(§10) Antimicrobial assays were performed in dark, and results were read after 24 h of incubation at 25° C. Each test towards the same indicator strain was performed in three replicates.
(§11) The assayed strains were environment isolates identified by an internal number or standard strains identified by the ATCC or NCIMB accession number.

[7] = test system: Pseudomonas putida NCIMB 1960; assay: Microdilution broth MIC/MBC; format: cell-based; details: 24 h at 25° C., dark
Procedure: as §5, §6, §7, §8, §9, §10, §11

[8] = test system: Escherichia coli ATCC 25922; assay: Microdilution broth MIC/MBC; format: cell-based; details: 24 h at 25° C., dark
Procedure: as §5, §6, §7, §8, §9, §10, §11

[9] = test system: Micrococcus sp. AE11; assay: Microdilution broth MIC/MBC; format: cell-based; details: 24 h at 25° C., dark
Procedure: as §5, §6, §7, §8, §9, §10, §11

[10] = test system: Vibrio sp. AD18; assay: Microdilution broth MIC/MBC; format: cell-based; details: 24 h at 25° C., dark
Procedure: as §5, §6, §7, §8, §9, §10, §11

[11] = test system: Micrococcus sp. AD10; assay: Microdilution broth MIC/MBC; format: cell-based; details: 24 h at 25° C., dark
Procedure: as §5, §6, §7, §8, §9, §10, §11

[12] = test system: Corynebacterium sp. CT15; assay: Microdilution broth MIC/MBC; format: cell-based; details: 24 h at 25° C., dark
Procedure: as §5, §6, §7, §8, §9, §10, §11

[13] = test system: Pseudomonas elongata NCIMB 1141; assay: Microdilution broth MIC/MBC; format: cell-based; details: 24 h at 25° C., dark
Procedure: as §5, §6, §7, §8, §9, §10, §11

[14] = test system: Pseudomonas aeruginosa ATCC 10145; assay: Microdilution broth MIC/MBC; format: cell-based; details: 24 h at 25° C., dark
Procedure: as §5, §6, §7, §8, §9, §10, §11

[15] = test system: Bacillus licheniformis NCIMB 1525; assay: Microdilution broth MIC/MBC; format: cell-based; details: 24 h at 25° C., dark
Procedure: as §5, §6, §7, §8, §9, §10, §11

[16] = test system: Bacillus subtilis ATCC 10774; assay: Microdilution broth MIC/MBC; format: cell-based; details: 24 h at 25° C., dark
Procedure: as §5, §6, §7, §8, §9, §10, §11

[17] = test system: Vibrio parahaemolyticus AD19; assay: Microdilution broth MIC/MBC; format: cell-based; details: 24 h at 25° C., dark
Procedure: as §5, §6, §7, §8, §9, §10, §11

[18] = test system: Vibrio sp. AE7; assay: Microdilution broth MIC/MBC; format: cell-based; details: 24 h at 25° C., dark
Procedure: as §5, §6, §7, §8, §9, §10, §11

[19] = test system: Vibrio sp. CH45; assay: Microdilution broth MIC/MBC; format: cell-based; details: 24 h at 25° C., dark
Procedure: as §5, §6, §7, §8, §9, §10, §11

## CC1(S(=O)(=O)O)CC(=O)c2ccccc2C1=O.NC(=O)c1cccnc1 (stereo not shown) [MNB, menadione nicotinamide bisulphite]
[1]; 24 hours
  LC50: 0.228 µg/mL
[1]; 48 hours
  LC50: 0.222 µg/mL
[2]
  size of the inhibition halos: 20 mm
[3]
  size of the inhibition halos: 0 mm
[4]
  size of the inhibition halos: 0 mm
[5]
  size of the inhibition halos: 20 mm
[6]
  MBC: 64 µg/mL
  MIC: 32 µg/mL
[7]
  MBC: >64 µg/mL
  MIC: >64 µg/mL
[8]
  MBC: >64 µg/mL
  MIC: >64 µg/mL
[9]
  MBC: 16 µg/mL
  MIC: 8 µg/mL
[10]
  MBC: 32 µg/mL
  MIC: 16 µg/mL
[11]
  MBC: 32 µg/mL
  MIC: 16 µg/mL
[12]
  MBC: 16 µg/mL
  MIC: 8 µg/mL
[13]
  MBC: 16 µg/mL
  MIC: 8 µg/mL
[14]
  MBC: >64 µg/mL
  MIC: >64 µg/mL
[15]
  MBC: 32 µg/mL
  MIC: 16 µg/mL
[16]
  MBC: 32 µg/mL
  MIC: 12 µg/mL
[17]
  MBC: 4 µg/mL
  MIC: 1 µg/mL
[18]
  MBC: 64 µg/mL
  MIC: 32 µg/mL
[19]
  MBC: 16 µg/mL
  MIC: 16 µg/mL
